In the assay the target is T1, Prostaglandin G/H synthase 2 (Homo sapiens, UniProt P35354).
T1 sequence (P35354 whole entry): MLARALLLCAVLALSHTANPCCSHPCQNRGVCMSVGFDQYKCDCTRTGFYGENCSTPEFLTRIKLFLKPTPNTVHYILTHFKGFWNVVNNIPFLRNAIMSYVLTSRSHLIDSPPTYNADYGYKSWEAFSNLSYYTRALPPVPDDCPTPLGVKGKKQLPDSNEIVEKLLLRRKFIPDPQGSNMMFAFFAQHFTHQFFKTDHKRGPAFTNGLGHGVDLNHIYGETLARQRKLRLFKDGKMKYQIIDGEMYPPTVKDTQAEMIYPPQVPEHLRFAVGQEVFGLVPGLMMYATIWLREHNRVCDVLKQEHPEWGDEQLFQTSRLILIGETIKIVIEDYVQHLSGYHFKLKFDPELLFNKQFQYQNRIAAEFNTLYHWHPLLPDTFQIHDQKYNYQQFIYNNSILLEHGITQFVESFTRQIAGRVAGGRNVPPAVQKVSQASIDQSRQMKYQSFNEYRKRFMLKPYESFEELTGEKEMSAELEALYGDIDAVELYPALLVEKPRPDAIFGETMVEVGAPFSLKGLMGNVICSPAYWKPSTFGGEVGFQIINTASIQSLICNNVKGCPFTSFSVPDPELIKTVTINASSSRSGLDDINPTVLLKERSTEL
The experiment in a line: Inhibitory concentration for Cyclooxygenase-2 (Prostaglandin G/H synthase 2) in human whole blood. The assay is classed as tissue-based.
`Cc1cc(=O)c(Oc2ccc(OC(F)(F)F)cc2)c(-c2ccc(S(C)(=O)=O)cc2)o1` showed an IC50 of 2.45 µM. Next, `CS(=O)(=O)c1ccc(-c2occ(Cl)c(=O)c2-c2ccc(-c3ccccc3)c(F)c2)cc1`: 87.9 µM; `Cc1cc(=O)c(Oc2ccc(Cl)cc2Cl)c(-c2ccc(S(C)(=O)=O)cc2)o1`: 3.38 µM.

For the origin of these results see ChEMBL document CHEMBL1142830, “QSAR studies on structurally similar 2-(4-methanesulfonylphenyl)pyran-4-ones as selective COX-2 inhibitors: a Hansch approach” (Bioorg Med Chem Lett, 2005).
